Measured values from patent publication US8754242B2, “Herbicides” (Syngenta Crop Protection LLC, priority 2007, dated 2014).

Columns and labels:
Type in all cases: in vivo
[1] = system: Avena fatua (AVEFA); assay: Test Example 1 pre-emergence herbicidal activity; conditions: rate 250 g/ha, evaluated 20 days later; for pest or weed control at 250 g/ha: Avena fatua, 480 h, read-out: Pre-emergence activity AVEFA (100=total damage to plant; 0=no damage to plant)
Method in brief: (§1)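 Once sown in standard soil, pots received an aqueous spray of the formulated active ingredient, either after one day or after ten days of controlled glasshouse growth. Plants then grew under optimum greenhouse conditions. Herbicidal effect was assessed visually 15 (post-emergence) or 20 (pre-emergence) days later, 100 meaning total plant damage.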

[2] = system: Setaria faberi (SETFA); assay: Test Example 1 pre-emergence herbicidal activity; conditions: rate 250 g/ha, evaluated 20 days later; for pest or weed control at 250 g/ha: Setaria faberi, 480 h, read-out: Pre-emergence activity SETFA (100=total damage to plant; 0=no damage to plant)
Method in brief: as §1

[3] = system: Echinochloa crus-galli (ECHCG); assay: Test Example 1 pre-emergence herbicidal activity; conditions: rate 250 g/ha, evaluated 20 days later; for pest or weed control at 250 g/ha: Echinochloa crus-galli, 480 h, read-out: Pre-emergence activity ECHCG (100=total damage to plant; 0=no damage to plant)
Method in brief: as §1

[4] = system: Digitaria sanguinalis (DIGSA); assay: Test Example 1 pre-emergence herbicidal activity; conditions: rate 250 g/ha, evaluated 20 days later; for pest or weed control at 250 g/ha: Digitaria sanguinalis, 480 h, read-out: Pre-emergence activity DIGSA (100=total damage to plant; 0=no damage to plant)
Method in brief: as §1

[5] = system: Lolium perenne (LOLPE); assay: Test Example 1 pre-emergence herbicidal activity; conditions: rate 250 g/ha, evaluated 20 days later; for pest or weed control at 250 g/ha: Lolium perenne, 480 h, read-out: Pre-emergence activity LOLPE (100=total damage to plant; 0=no damage to plant)
Method in brief: as §1

[6] = system: Alopecurus myosuroides (ALOMY); assay: Test Example 1 pre-emergence herbicidal activity; conditions: rate 250 g/ha, evaluated 20 days later; for pest or weed control at 250 g/ha: Alopecurus myosuroides, 480 h, read-out: Pre-emergence activity ALOMY (100=total damage to plant; 0=no damage to plant)
Method in brief: as §1

[7] = system: Avena fatua (AVEFA); assay: Test Example 1 post-emergence herbicidal activity; conditions: rate 125 g/ha, evaluated 15 days later; for pest or weed control at 125 g/ha: 360 h, read-out: Post-emergence activity AVEFA (100=total damage to plant; 0=no damage to plant)
Method in brief: as §1

[8] = system: Setaria faberi (SETFA); assay: Test Example 1 post-emergence herbicidal activity; conditions: rate 125 g/ha, evaluated 15 days later; for pest or weed control at 125 g/ha: 360 h, read-out: Post-emergence activity SETFA (100=total damage to plant; 0=no damage to plant)
Method in brief: as §1

[9] = system: Echinochloa crus-galli (ECHCG); assay: Test Example 1 post-emergence herbicidal activity; conditions: rate 125 g/ha, evaluated 15 days later; for pest or weed control at 125 g/ha: 360 h, read-out: Post-emergence activity ECHCG (100=total damage to plant; 0=no damage to plant)
Method in brief: as §1

[10] = system: Digitaria sanguinalis (DIGSA); assay: Test Example 1 post-emergence herbicidal activity; conditions: rate 125 g/ha, evaluated 15 days later; for pest or weed control at 125 g/ha: 360 h, read-out: Post-emergence activity DIGSA (100=total damage to plant; 0=no damage to plant)
Method in brief: as §1

[11] = system: Lolium perenne (LOLPE); assay: Test Example 1 post-emergence herbicidal activity; conditions: rate 125 g/ha, evaluated 15 days later; for pest or weed control at 125 g/ha: 360 h, read-out: Post-emergence activity LOLPE (100=total damage to plant; 0=no damage to plant)
Method in brief: as §1

[12] = system: Alopecurus myosuroides (ALOMY); assay: Test Example 1 post-emergence herbicidal activity; conditions: rate 125 g/ha, evaluated 15 days later; for pest or weed control at 125 g/ha: 360 h, read-out: Post-emergence activity ALOMY (100=total damage to plant; 0=no damage to plant)
Method in brief: as §1

SMILES | pest or weed control at 250 g/ha [1] | pest or weed control at 250 g/ha [2] | pest or weed control at 250 g/ha [3] | pest or weed control at 250 g/ha [4] | pest or weed control at 250 g/ha [5] | pest or weed control at 250 g/ha [6] | pest or weed control at 125 g/ha [7] | pest or weed control at 125 g/ha [8] | pest or weed control at 125 g/ha [9] | pest or weed control at 125 g/ha [10] | pest or weed control at 125 g/ha [11] | pest or weed control at 125 g/ha [12] | other results
CCc1cc(C)cc(CC)c1C1=C(O)[C@H]2[C@@H](C1=O)[C@@H]1CC[C@@]2(COCC#N)O1 [Example T27] | 70% | 100% | 100% | 90% | 70% | 70% | 90% | 100% | 100% | 100% | 80% | 100% | 
Cc1cc(C)c(C2=C(O)[C@H]3[C@@H](C2=O)[C@]2(C)C=C[C@@]3(C)O2)c(C)c1 [Example T34] | 30% | 80% | 40% | 60% | 60% | 70% | 30% | 80% | 80% | 80% | 30% | 40% | 
CC[C@]12C=C[C@H](O1)[C@@H]1C(=O)C(c3c(C)cc(C)cc3C)=C(O)[C@@H]12 [Example T40] | 60% | 40% | 40% | 60% | 60% | 50% | 30% | 70% | 70% | 70% | 30% | 40% | 
Cc1cc(C)c(C2=C(O)[C@@H]3[C@@H]4O[C@@H]([C@H](Br)[C@H]4Br)[C@@H]3C2=O)c(C)c1 [Example T46] | 0% | 30% | 70% | 20% | 30% | 10% | 0% | 60% | 80% | 0% | 0% | 0% | 
COC[C@H]1C[C@@H]2O[C@H]1[C@H]1C(O)=C(c3c(C)cc(C)cc3C)C(=O)[C@H]12 [Example T47] | 80% | 80% | 100% | 70% | 100% | 100% | 90% | 70% | 100% | 60% | 90% | 100% | 
Cc1cc(C)c(C2=C(O)[C@H]3[C@@H](C2=O)[C@@H]2CC[C@@]3(C)O2)c(C)c1 [Example T48] |  |  |  |  |  |  |  |  |  |  |  |  | Pre-emergence activity AVEFA (100=total damage to plant; 0=no damage to plant) [1]: 80; Pre-emergence activity SETFA (100=total damage to plant; 0=no damage to plant) [2]: 100; Pre-emergence activity ECHCG (100=total damage to plant; 0=no damage to plant) [3]: 100; Pre-emergence activity DIGSA (100=total damage to plant; 0=no damage to plant) [4]: 100; Pre-emergence activity LOLPE (100=total damage to plant; 0=no damage to plant) [5]: 100; Pre-emergence activity ALOMY (100=total damage to plant; 0=no damage to plant) [6]: 100; Post-emergence activity AVEFA (100=total damage to plant; 0=no damage to plant) [7]: 70; Post-emergence activity SETFA (100=total damage to plant; 0=no damage to plant) [8]: 90; Post-emergence activity ECHCG (100=total damage to plant; 0=no damage to plant) [9]: 100; Post-emergence activity DIGSA (100=total damage to plant; 0=no damage to plant) [10]: 100; Post-emergence activity LOLPE (100=total damage to plant; 0=no damage to plant) [11]: 70; Post-emergence activity ALOMY (100=total damage to plant; 0=no damage to plant) [12]: 80
Cc1cc(C)c(C2=C(O)[C@H]3[C@@H](C2=O)[C@@H]2CC[C@@]3(CO)O2)c(C)c1 [Example T49] | 70% | 20% | 80% | 10% | 100% | 80% | 80% | 50% | 80% | 70% | 70% | 80% | 
CC[C@]12CC[C@H](O1)[C@@H]1C(=O)C(c3c(C)cc(C)cc3C)=C(O)[C@@H]12 [Example T52] | 30% | 90% | 100% | 90% | 100% | 40% | 70% | 80% | 100% | 80% | 70% | 60% | 
Cc1cc(C)c(C2=C(O)[C@@H]3[C@@H]4O[C@@H](C[C@H]4c4ccccc4)[C@@H]3C2=O)c(C)c1 [Example T56] | 60% | 70% | 100% | 70% | 100% | 100% | 50% | 60% | 100% | 70% | 80% | 100% | 
Cc1cc(C)c(C2=C(O)[C@H]3[C@@H](C2=O)[C@@H]2C=C(CO)[C@@]3(C)O2)c(C)c1 [Example T58] | 10% | 0% | 60% | 0% | 0% | 0% | 10% | 30% | 30% | 40% | 0% | 0% | 
CCC(=O)OC[C@]12C=C[C@H](O1)[C@@H]1C(=O)C(c3c(C)cc(C)cc3C)=C(O)[C@@H]12 [Example T59] | 20% | 40% | 30% | 50% | 30% | 10% | 40% | 70% | 80% | 80% | 0% | 50% | 
CC1=C2CCC(C)C[C@@]23O[C@@H]1C1C(=O)C(c2c(C)cc(C)cc2C)=C(O)C13 (stereo partly drawn) [Example T60] | 40% | 10% | 30% | 30% | 10% | 0% | 0% | 40% | 0% | 50% | 0% | 10% | 
Cc1cc(C)c(C2=C(O)C3C(C2=O)[C@@H]2CC(CO)[C@@]3(C)O2)c(C)c1 (stereo partly drawn) [Example T62] | 70% | 80% | 80% | 80% | 60% | 70% | 0% | 70% | 80% | 70% | 20% | 60% | 
